# BindingDB's records for doi:10.1016/j.bmc.2006.03.027 (Abbott Laboratories, 2006)
# Target: Transient receptor potential cation channel subfamily V member 1 (Homo sapiens, UniProt Q8NER1)
# Assay: Ca2+ Influx Functional Assay for the Determination of in Vitro Activity.
# Details: pH 7.4; 22 °C
# Sequence of Transient receptor potential cation channel subfamily V member 1 (Q8NER1 whole entry): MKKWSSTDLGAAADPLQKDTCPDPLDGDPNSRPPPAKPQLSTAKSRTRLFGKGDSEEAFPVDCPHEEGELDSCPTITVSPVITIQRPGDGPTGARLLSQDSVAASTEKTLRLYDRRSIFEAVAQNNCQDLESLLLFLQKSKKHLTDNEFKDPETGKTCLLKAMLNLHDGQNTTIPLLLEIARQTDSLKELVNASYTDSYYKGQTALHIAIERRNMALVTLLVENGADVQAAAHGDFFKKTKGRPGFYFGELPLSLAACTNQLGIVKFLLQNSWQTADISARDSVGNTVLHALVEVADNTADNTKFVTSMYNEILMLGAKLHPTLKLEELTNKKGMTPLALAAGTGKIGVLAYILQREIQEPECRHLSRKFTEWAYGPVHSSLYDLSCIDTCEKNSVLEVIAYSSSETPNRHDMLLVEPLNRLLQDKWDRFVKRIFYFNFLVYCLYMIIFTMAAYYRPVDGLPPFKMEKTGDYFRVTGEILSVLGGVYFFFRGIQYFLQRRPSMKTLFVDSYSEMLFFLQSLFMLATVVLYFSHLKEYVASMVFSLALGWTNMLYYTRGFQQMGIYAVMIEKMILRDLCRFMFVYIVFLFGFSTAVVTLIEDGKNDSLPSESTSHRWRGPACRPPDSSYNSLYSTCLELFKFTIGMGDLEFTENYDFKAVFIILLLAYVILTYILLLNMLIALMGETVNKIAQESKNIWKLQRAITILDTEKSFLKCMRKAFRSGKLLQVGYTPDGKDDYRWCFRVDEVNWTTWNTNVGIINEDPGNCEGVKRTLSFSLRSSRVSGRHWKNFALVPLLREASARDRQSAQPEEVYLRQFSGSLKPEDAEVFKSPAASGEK
row,Structure (SMILES),EC50 [nM]
1,"O=C(NCc1ccc(Cl)c(Cl)c1)Nc1cccc2[nH]ccc12 [1-[(3,4-dichlorophenyl)methyl]-3-1H-indol-4-ylurea]",220
2,O=C(NCc1ccc(Cl)c(C(F)(F)F)c1)Nc1cccc2[nH]ccc12 [1-{[4-chloro-3-(trifluoromethyl)phenyl]methyl}-3-1H-indol-4-ylurea],70
3,O=C(NCc1ccc(Br)cc1)Nc1cccc2[nH]ncc12 [1-[(4-bromophenyl)methyl]-3-1H-indazol-4-ylurea],13
4,"Cc1[nH]c2cccc(NC(=O)NCc3ccc(Br)cc3)c2c1C [1-[(4-bromophenyl)methyl]-3-(2,3-dimethyl-1H-indol-4-yl)urea]",1470
5,O=C(Nc1cccc2[nH]ccc12)OCc1ccc(C(F)(F)F)cc1 [[4-(trifluoromethyl)phenyl]methyl N-(1H-indol-4-yl)carbamate],940
6,O=C(NCc1ccc(Br)cc1)Nc1ccc2cc[nH]c2c1 [1-[(4-bromophenyl)methyl]-3-1H-indol-6-ylurea],3010
7,O=C(NCc1cccc(C(F)(F)F)c1)Nc1cccc2[nH]ncc12 [3-1H-indazol-4-yl-1-{[3-(trifluoromethyl)phenyl]methyl}urea],44
8,"O=C(NCc1ccc(Cl)c(Cl)c1)Nc1cccc2[nH]ncc12 [1-[(3,4-dichlorophenyl)methyl]-3-1H-indazol-4-ylurea]",21
9,O=C(NCc1ccc(Br)cc1)Nc1cccc2cc[nH]c12 [1-[(4-bromophenyl)methyl]-3-1H-indol-7-ylurea],180
10,"O=C(NCc1ccc(Br)cc1)Nc1cccc2nc[nH]c12 [3-1H-1,3-benzodiazol-4-yl-1-[(4-bromophenyl)methyl]urea]",2470
11,Cn1ncc2c(NC(=O)NCc3ccc(F)cc3)cccc21 [1-[(4-fluorophenyl)methyl]-3-(1-methyl-1H-indazol-4-yl)urea],720
12,Cn1cc2c(NC(=O)NCc3ccc(Br)cc3)cccc2n1 [1-[(4-bromophenyl)methyl]-3-(2-methyl-2H-indazol-4-yl)urea],1390
13,O=C(NCc1ccc(F)cc1)Nc1cccc2[nH]ccc12 [1-[(4-fluorophenyl)methyl]-3-1H-indol-4-ylurea],2710
14,O=C(NCc1ccc(C(F)(F)F)cc1)Nc1cccc2[nH]ncc12 [3-1H-indazol-4-yl-1-{[4-(trifluoromethyl)phenyl]methyl}urea],9
15,O=C(NCc1ccc(Br)cc1)Nc1ccc2[nH]ccc2c1 [1-[(4-bromophenyl)methyl]-3-1H-indol-5-ylurea],5850
16,O=C(NCc1ccc(OC(F)(F)F)cc1)Nc1cccc2[nH]ncc12 [3-1H-indazol-4-yl-1-{[4-(trifluoromethoxy)phenyl]methyl}urea],11
17,Cn1ncc2c(NC(=O)NCc3ccc(Br)cc3)cccc21 [1-[(4-bromophenyl)methyl]-3-(1-methyl-1H-indazol-4-yl)urea],76
18,O=C(NCc1ccc(OC(F)(F)F)cc1)Nc1cccc2[nH]ccc12 [3-1H-indol-4-yl-1-{[4-(trifluoromethoxy)phenyl]methyl}urea],80
19,O=C(NCc1cccc(F)c1)Nc1cccc2[nH]ccc12 [1-[(3-fluorophenyl)methyl]-3-1H-indol-4-ylurea],2700
20,O=C(NCc1ccc(Cl)cc1)Nc1cccc2[nH]ccc12 [1-[(4-chlorophenyl)methyl]-3-1H-indol-4-ylurea],150
21,"Cn1ncc2c(NC(=O)NCc3ccc(Cl)c(Cl)c3)cccc21 [1-[(3,4-dichlorophenyl)methyl]-3-(1-methyl-1H-indazol-4-yl)urea]",120
22,O=C(NCc1ccc(C(F)(F)F)c(F)c1)Nc1cccc2[nH]ccc12 [1-{[3-fluoro-4-(trifluoromethyl)phenyl]methyl}-3-1H-indol-4-ylurea],40
23,O=C(NCc1ccc(C(F)(F)F)cc1)Nc1cccc2[nH]ccc12 [3-1H-indol-4-yl-1-{[4-(trifluoromethyl)phenyl]methyl}urea],60
24,Cn1ncc2c(NC(=O)NCc3ccc(OC(F)(F)F)cc3)cccc21 [3-(1-methyl-1H-indazol-4-yl)-1-{[4-(trifluoromethoxy)phenyl]methyl}urea],35
25,Cn1ncc2c(NC(=O)NCc3ccc(Cl)cc3)cccc21 [1-[(4-chlorophenyl)methyl]-3-(1-methyl-1H-indazol-4-yl)urea],60
26,O=C(Cc1cccc2[nH]ncc12)NCc1ccc(C(F)(F)F)cc1 [2-(1H-indazol-4-yl)-N-{[4-(trifluoromethyl)phenyl]methyl}acetamide],10200
27,O=C(NCc1ccc(Br)cc1)Nc1ccc2[nH]ncc2c1 [1-[(4-bromophenyl)methyl]-3-1H-indazol-5-ylurea],3540
28,O=C(Cc1cccc2[nH]ccc12)NCc1ccc(C(F)(F)F)cc1 [2-(1H-indol-4-yl)-N-{[4-(trifluoromethyl)phenyl]methyl}acetamide],520
29,O=C(NCc1ccc(Br)cc1)Nc1cccc2[nH]ccc12 [1-[(4-bromophenyl)methyl]-3-1H-indol-4-ylurea],110
